Assay results reported in US20250034098A1, “CRYSTALLINE SUBSTITUTED PYRAZINES AS PGI2 RECEPTOR AGONISTS” (NIPPON SHINYAKU CO., LTD., priority 2017, published 2025).

How the values were obtained:
[1] = Stability test of crystal forms of Compound B (Test Example 1); assay type: physicochemical; settings: for thermodynamic stability of the crystal form: Test Example 1, storage at 90° C.; for crystal form transformation on storage: storage at 90° C.; for Crystal form after 14 days: stored at 90° C.
Procedure: Different crystal forms of Compound B were placed in glass bottles, respectively, and the glass bottles were hermetically sealed and stored at 90° C. Samples were taken out after 1 day, 5 days, and 14 days, and dissolved in methanol at a concentration of 1 mg/mL to determine related substances by HPLC. With respect to the crystals after 14 days, the crystal form was checked.

[2] = Solvent suspending test of form-I crystal in different solvents (Test Example 2); assay type: physicochemical; settings: for Crystal form after 30 minutes at room temperature: stirring
Procedure: The form-I crystal of the present invention was mixed with different solvents, and stirring was performed at room temperature for 30 minutes. The formed crystals were obtained by filtration, and the crystal forms were determined.

PGI2 receptor = PGI2 receptor (Homo sapiens, UniProt P43119); settings: cited from earlier work
Chain of PGI2 receptor (P43119 whole entry, species assumed): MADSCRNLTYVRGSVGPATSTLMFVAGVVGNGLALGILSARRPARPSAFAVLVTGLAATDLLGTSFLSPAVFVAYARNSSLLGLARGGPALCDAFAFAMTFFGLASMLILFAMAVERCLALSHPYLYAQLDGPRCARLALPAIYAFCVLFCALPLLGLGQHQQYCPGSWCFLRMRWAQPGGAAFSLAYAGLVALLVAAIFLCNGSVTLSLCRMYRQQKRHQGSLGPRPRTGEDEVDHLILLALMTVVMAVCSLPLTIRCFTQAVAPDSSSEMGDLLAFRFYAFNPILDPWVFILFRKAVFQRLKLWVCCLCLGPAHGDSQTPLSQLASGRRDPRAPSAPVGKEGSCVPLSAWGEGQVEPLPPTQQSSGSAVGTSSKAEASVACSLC

[3] = 90° C., after 1 day, hermetically sealed glass bottle
[4] = 90° C., after 5 days, hermetically sealed glass bottle
[5] = 90° C., after 14 days, hermetically sealed glass bottle
[6] = hermetically sealed glass bottle

SMILES: CC(C)N(CCCCOCC(=O)O)c1cnc(-c2ccccc2)c(-c2ccccc2)n1 [Form-I, 2-{4-[N-(5,6-diphenylpyrazin-2-yl)-N-isopropylamino]butyloxy}acetic acid]
- Appearance [1, 3]: No change
- HPLC area (%) [1, 3]: 99.8%
- Appearance [1, 4]: No change
- HPLC area (%) [1, 4]: 99.8%
- Appearance [1, 5]: No change
- HPLC area (%) [1, 5]: 99.6%
- Appearance ([1]; Before storage): White crystal
- HPLC area (%) ([1]; Before storage): 99.8%
- thermodynamic stability of the crystal form ([1]; listed as form-I crystal): thermodynamically more stable
- crystal form transformation on storage [1]: gradually transformed into the form-II
- Crystal form after 14 days [1, 6]: Form-I + Form-II
- crystal form transformation when suspended ([2]; all the solvents, room temperature): partially transformed into the form-II crystal of the present invention
- Crystal form after 30 minutes at room temperature ([2]; solvent 2-propanol): Form-I + Form-II (1:10)
- Crystal form after 30 minutes at room temperature ([2]; solvent cyclohexane): Form-I + Form-II (1:1)
- Crystal form after 30 minutes at room temperature ([2]; solvent toluene): Form-I + Form-II (10:1)
- Crystal form after 30 minutes at room temperature ([2]; solvent water): Form-I + Form-II (10:1)

SMILES: CC(C)N(CCCCOCC(=O)O)c1cnc(-c2ccccc2)c(-c2ccccc2)n1 [Form-II, 2-{4-[N-(5,6-diphenylpyrazin-2-yl)-N-isopropylamino]butyloxy}acetic acid]
- Appearance [1, 3]: No change
- HPLC area (%) [1, 3]: 100%
- Appearance [1, 4]: No change
- HPLC area (%) [1, 4]: 100%
- Appearance [1, 5]: No change
- HPLC area (%) [1, 5]: 99.9%
- Appearance ([1]; Before storage): Yellow crystal
- HPLC area (%) ([1]; Before storage): 100%
- thermodynamic stability of the crystal form [1]: thermodynamically stable
- thermodynamic stability of the crystal form ([1]; listed as form-II crystal): thermodynamically more stable
- Crystal form after 14 days [1, 6]: Form-II
- thermodynamic stability of the crystal form when suspended ([2]; various solvents at room temperature): thermodynamically stable

SMILES: CC(C)N(CCCCOCC(=O)O)c1cnc(-c2ccccc2)c(-c2ccccc2)n1 [Form-III, 2-{4-[N-(5,6-diphenylpyrazin-2-yl)-N-isopropylamino]butyloxy}acetic acid]
- Appearance [1, 3]: No change
- HPLC area (%) [1, 3]: 99.9%
- Appearance [1, 4]: No change
- HPLC area (%) [1, 4]: 99.9%
- Appearance [1, 5]: No change
- HPLC area (%) [1, 5]: 99.7%
- Appearance ([1]; Before storage): Yellow crystal
- HPLC area (%) ([1]; Before storage): 99.9%
- thermodynamic stability of the crystal form ([1]; listed as form-III crystal): thermodynamically unstable
- crystal form transformation on storage [1]: gradually transformed into the form-II
- Crystal form after 14 days [1, 6]: Form-II

SMILES: CC(C)N(CCCCOCC(=O)O)c1cnc(-c2ccccc2)c(-c2ccccc2)n1 [Compound B, 2-{4-[N-(5,6-diphenylpyrazin-2-yl)-N-isopropylamino]butyloxy}acetic acid]
- PGI2 receptor agonistic effect (PGI2 receptor): excellent
